The values that follow come from the NIST ThermoML archive (doi:10.1016/j.jct.2009.09.006).

± gives the expanded uncertainty stated by the source.

For data set [1] the following is noted: Crystal; DTA.
The nature of data set [2]: Molar enthalpy of transition or fusion. The following applies: Crystal; DSC.

As for `CCCCn1cc[n+](C)c1.Cc1ccc(S(=O)(=O)[O-])cc1` [1-butyl-3-methylimidazolium tosylate], the Normal melting temperature in data set [1] amounted to 57.01 ± 0.39 °C. Besides, in data set [2], the “Molar enthalpy of transition or fusion” value came out at 3.91 ± 0.108 kcal/mol.
